#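 Test compounds were applied to cells in 96-well plates for 48 hours at 5 doses. TGI is the concentration that stops growth completely.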
# Columns and labels:
# Assay in all cases: NCI tumour cell line growth inhibition, 48 h
# KM12 colon = test system: KM12 colon
# KM20L2 colon = test system: KM20L2 colon
# A549 NSCLC = test system: A549 NSCLC
# SK-MEL-5 melanoma = test system: SK-MEL-5 melanoma
# HOP-18 NSCLC = test system: HOP-18 NSCLC
# SK-OV-3 ovarian = test system: SK-OV-3 ovarian
# OVCAR-4 ovarian = test system: OVCAR-4 ovarian
# HOP-62 NSCLC = test system: HOP-62 NSCLC
# NCI-H522 lung = test system: NCI-H522 lung
# U251 CNS = test system: U251 CNS
# P388 leukemia = test system: P388 leukemia
# SF-268 CNS = test system: SF-268 CNS
# SW-620 colon = test system: SW-620 colon
# SK-MEL-28 melanoma = test system: SK-MEL-28 melanoma
# NCI-H23 lung = test system: NCI-H23 lung
# UACC-257 melanoma = test system: UACC-257 melanoma
# HT29 colon = test system: HT29 colon
# EKVX NSCLC = test system: EKVX NSCLC
# CCRF-CEM leukemia = test system: CCRF-CEM leukemia
# SNB-19 CNS = test system: SNB-19 CNS
# LOX IMVI melanoma = test system: LOX IMVI melanoma
# NCI-H460 lung = test system: NCI-H460 lung
# MALME-3M melanoma = test system: MALME-3M melanoma
# DMS 114 small cell lung = test system: DMS 114 small cell lung
# K-562 leukemia = test system: K-562 leukemia
# HCT-15 colon = test system: HCT-15 colon
# M19-MEL melanoma = test system: M19-MEL melanoma
# SN12C renal = test system: SN12C renal
# DMS 273 small cell lung = test system: DMS 273 small cell lung
# HOP-92 NSCLC = test system: HOP-92 NSCLC
# SF-539 CNS = test system: SF-539 CNS
# MCF7 breast = test system: MCF7 breast
# OVCAR-8 ovarian = test system: OVCAR-8 ovarian
# RXF 393 renal = test system: RXF 393 renal
# SNB-78 CNS = test system: SNB-78 CNS
# OVCAR-5 ovarian = test system: OVCAR-5 ovarian
# CAKI-1 renal = test system: CAKI-1 renal
# HCT-116 colon = test system: HCT-116 colon
# MOLT-4 leukemia = test system: MOLT-4 leukemia
# A498 renal = test system: A498 renal
# SN12K1 renal = test system: SN12K1 renal
# HL-60(TB) leukemia = test system: HL-60(TB) leukemia
# IGROV1 ovarian = test system: IGROV1 ovarian
# UACC-62 melanoma = test system: UACC-62 melanoma
# HCC-2998 colon = test system: HCC-2998 colon
# NCI/ADR-RES ovarian = test system: NCI/ADR-RES ovarian
# COLO 205 colon = test system: COLO 205 colon
# OVCAR-3 ovarian = test system: OVCAR-3 ovarian
# SNB-75 CNS = test system: SNB-75 CNS
# UO-31 renal = test system: UO-31 renal
# SF-295 CNS = test system: SF-295 CNS
# P388/ADR leukemia = test system: P388/ADR leukemia
# SK-MEL-2 melanoma = test system: SK-MEL-2 melanoma
smiles,measurement,setting,value
CSCCC(NC(=O)C(Cc1ccccc1)NC(=O)CNC(=O)CNC(=O)C(N)Cc1ccc(O)cc1)C(=O)O (stereo not drawn),TGI,KM12 colon,> 100 µM
same,TGI,KM20L2 colon,> 29 µM
same,TGI,A549 NSCLC,> 100 µM
same,TGI,SK-MEL-5 melanoma,> 100 µM
same,TGI,HOP-18 NSCLC,> 100 µM
same,TGI,SK-OV-3 ovarian,> 100 µM
same,TGI,OVCAR-4 ovarian,> 100 µM
same,TGI,HOP-62 NSCLC,> 100 µM
same,TGI,NCI-H522 lung,> 100 µM
same,TGI,U251 CNS,> 100 µM
same,TGI,P388 leukemia,> 100 µM
same,TGI,SF-268 CNS,> 100 µM
same,TGI,SW-620 colon,> 100 µM
same,TGI,SK-MEL-28 melanoma,> 100 µM
same,TGI,NCI-H23 lung,> 100 µM
same,TGI,UACC-257 melanoma,> 100 µM
same,TGI,HT29 colon,> 100 µM
same,TGI,EKVX NSCLC,> 100 µM
same,TGI,CCRF-CEM leukemia,> 100 µM
same,TGI,SNB-19 CNS,> 100 µM
same,TGI,LOX IMVI melanoma,> 100 µM
same,TGI,NCI-H460 lung,> 100 µM
same,TGI,MALME-3M melanoma,> 100 µM
same,TGI,DMS 114 small cell lung,> 100 µM
same,TGI,K-562 leukemia,> 100 µM
same,TGI,HCT-15 colon,> 100 µM
same,TGI,M19-MEL melanoma,> 100 µM
same,TGI,SN12C renal,> 100 µM
same,TGI,DMS 273 small cell lung,> 100 µM
same,TGI,HOP-92 NSCLC,> 100 µM
same,TGI,SF-539 CNS,> 100 µM
same,TGI,MCF7 breast,> 100 µM
same,TGI,OVCAR-8 ovarian,> 100 µM
same,TGI,RXF 393 renal,> 100 µM
same,TGI,SNB-78 CNS,> 100 µM
same,TGI,OVCAR-5 ovarian,> 100 µM
same,TGI,CAKI-1 renal,> 100 µM
same,TGI,HCT-116 colon,> 100 µM
same,TGI,MOLT-4 leukemia,> 100 µM
same,TGI,A498 renal,> 100 µM
same,TGI,SN12K1 renal,> 100 µM
same,TGI,HL-60(TB) leukemia,> 100 µM
same,TGI,IGROV1 ovarian,> 100 µM
same,TGI,UACC-62 melanoma,> 100 µM
same,TGI,HCC-2998 colon,> 100 µM
same,TGI,NCI/ADR-RES ovarian,> 100 µM
same,TGI,COLO 205 colon,> 100 µM
same,TGI,OVCAR-3 ovarian,> 100 µM
same,TGI,SNB-75 CNS,> 100 µM
same,TGI,UO-31 renal,> 100 µM
same,TGI,SF-295 CNS,> 100 µM
same,TGI,P388/ADR leukemia,> 100 µM
same,TGI,SK-MEL-2 melanoma,> 100 µM

# — PubChem BioAssay (NCI)
